Experimental data published in ChEMBL document CHEMBL5608166, “Current therapy in amyotrophic lateral sclerosis (ALS): A review on past and future therapeutic strategies” (Eur J Med Chem, 2024).

Target: Tau-tubulin kinase 2 (Homo sapiens, UniProt Q6IQ55)
Assay: Inhibition of TTBK2 (unknown origin)

Chain of Tau-tubulin kinase 2 (Q6IQ55 whole entry): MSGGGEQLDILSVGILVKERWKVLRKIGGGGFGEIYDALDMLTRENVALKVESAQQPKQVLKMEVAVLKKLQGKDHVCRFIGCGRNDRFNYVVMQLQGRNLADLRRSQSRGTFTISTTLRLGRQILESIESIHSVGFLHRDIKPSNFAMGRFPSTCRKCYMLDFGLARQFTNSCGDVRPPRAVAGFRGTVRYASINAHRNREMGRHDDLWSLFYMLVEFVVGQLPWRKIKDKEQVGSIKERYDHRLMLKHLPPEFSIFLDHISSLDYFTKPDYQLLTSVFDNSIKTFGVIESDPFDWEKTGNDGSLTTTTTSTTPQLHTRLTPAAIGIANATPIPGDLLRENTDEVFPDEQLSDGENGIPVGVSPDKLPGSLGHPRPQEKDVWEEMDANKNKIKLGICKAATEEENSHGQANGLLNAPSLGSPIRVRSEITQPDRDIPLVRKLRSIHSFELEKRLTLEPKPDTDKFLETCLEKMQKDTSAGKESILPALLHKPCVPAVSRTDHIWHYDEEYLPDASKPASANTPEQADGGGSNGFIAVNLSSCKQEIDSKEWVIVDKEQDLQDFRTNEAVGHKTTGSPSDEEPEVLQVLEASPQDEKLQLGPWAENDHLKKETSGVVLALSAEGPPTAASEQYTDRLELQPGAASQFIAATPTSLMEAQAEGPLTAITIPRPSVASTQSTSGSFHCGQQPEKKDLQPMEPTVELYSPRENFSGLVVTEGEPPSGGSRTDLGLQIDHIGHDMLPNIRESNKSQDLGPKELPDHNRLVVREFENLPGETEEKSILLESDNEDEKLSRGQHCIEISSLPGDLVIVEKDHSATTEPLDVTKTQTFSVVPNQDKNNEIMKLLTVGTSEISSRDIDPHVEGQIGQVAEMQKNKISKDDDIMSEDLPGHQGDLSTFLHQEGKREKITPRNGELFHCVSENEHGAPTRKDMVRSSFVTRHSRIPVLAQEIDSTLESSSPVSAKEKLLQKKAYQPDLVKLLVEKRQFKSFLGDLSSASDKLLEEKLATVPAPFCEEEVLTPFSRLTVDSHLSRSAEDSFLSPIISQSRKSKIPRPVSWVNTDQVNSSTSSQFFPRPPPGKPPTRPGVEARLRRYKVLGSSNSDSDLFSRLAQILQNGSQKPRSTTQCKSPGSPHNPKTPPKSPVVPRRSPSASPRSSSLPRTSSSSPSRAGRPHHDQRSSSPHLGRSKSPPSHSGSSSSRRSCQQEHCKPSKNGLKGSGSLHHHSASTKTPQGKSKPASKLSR

- IC50: 1.6 nM
Structure (SMILES): CC1(N)CCN(Cc2ccn3ncnc(Nc4cc(O)cc(Br)c4)c23)CC1
